Molecules are shown by their SMILES. Where two headings read alike, the source gives them in different places.

The subject of data set [1] is larvae of the mustard beetle (Phaedon cochleariae). Nature of the data set: Phaedon larvae test (cabbage leaves dipped). Type of data set: in vivo. An excerpt:
(§1) Phaedon Larvae Test To prepare one of the appropriate active ingredient preparations, mix 1 part by weight of the active ingredient with the indicated amount of solvent and emulsifier and dilute the concentrate with emulsifier-containing water to the desired concentration. Treat cabbage leaves (Brassica oleracea) by dipping into the active ingredient preparation of the desired concentration and infesting with larvae of the mustard beetle (Phaedon cochleariae) while the leaves are still damp. After the desired time, determine the death rate in %. For this purpose 100% means that all the beetle larvae on the leaves were killed; 0% means that no beetle larvae were killed.

The test system of data set [2] is larvae of the fall armyworm (Spodoptera frugiperda). Description: Spodoptera frugiperda test (cabbage leaves dipped). In kind it is in vivo.
From the text: as §1, with “Spodoptera frugiperda” for “Phaedon Larvae”, “infesting them” for “infesting”, “fall armyworm (Spodoptera frugiperda)” for “mustard beetle (Phaedon cochleariae)”, “these purposes” for “this purpose”, “the” for “the beetle”, “no” for “no beetle”

In data set [3] the test system is larvae of the diamondback moth (Plutella xylostella). Description: Plutella test (cabbage leaves dipped). Type of data set: in vivo.
From the text: as §1, with “Plutella” for “Phaedon Larvae”, “diamondback moth (Plutella xylostella)” for “mustard beetle (Phaedon cochleariae)”, “these purposes” for “this purpose”, “the” for “the beetle”, “no” for “no beetle”

A short description of data set [4]: logP determination by HPLC on reversed phase column (C 18), EEC directive 79/831. In kind it is physicochemical. Particulars: reversed phase HPLC column (C 18). The method, then: Determine the logP values given in the table as specified in EEC directive 79/831 ex V.A8 using HPLC (high performance liquid chromatography) in a reversed e column (C 18). Temperature: 43° C.
(a) eluents for determination in the acid range: 0.1% aqueous phosphoric acid, acetonitrile, linear gradient of 10% acetonitrile to 90% acetonitrile—corresponding measurement results are marked with an a) in Table 1.
(b) eluents for determination in the neutral range: 0.01-molar aqueous phosphate buffer solution, acetonitrile, linear gradient of 10% acetonitrile to 90% acetonitrile—corresponding measurement results are marked with a b) [sic] in Table 1.
Calibration is done using unbranched alkane-2-ones (with 3 to 16 carbon atoms), whose logP values are known (determination of the logP values using the retention times via linear interpolation between two sequential ketones).

Data set [5] concerns larvae of the beet armyworm (Spodoptera exigua). Description: Spodotera exigua test (cabbage leaves dipped). Type of data set: in vivo.
From the text: as §1, with “Spodotera exigua” for “Phaedon Larvae”, “infesting them” for “infesting”, “beet armyworm (Spodoptera exigua)” for “mustard beetle (Phaedon cochleariae)”, “these purposes” for “this purpose”, “the” for “the beetle”, “no” for “no beetle”

Data set [6] deals with Heliothis armigera larvae. Description: Heliothis armigera test (soybean sprouts dipped, larvae). In kind it is in vivo. From the text:
Heliothis armigera Test To prepare one of the appropriate active ingredient preparations, mix 1 part by weight of the active ingredient with the indicated amount of solvent and emulsifier and dilute the concentrate with emulsifier-containing water to the desired concentration. Treat soybean sprouts (Glycine max) by dipping into the active ingredient preparation of the desired concentration and infesting with Heliothis armigera larvae while the leaves are still damp. After the desired time, determine the death rate in %. For these purposes 100% means that all the larvae on the leaves were killed; 0% means that no larvae were killed.

Where [7] appears, read: 500 ppm active ingredient, after 7d, cabbage leaves.

With `N#CCN(C(=O)N1CCC(n2cc(Cl)cn2)C(c2cccc(C(F)(F)F)c2)=N1)c1ccc(OC(F)(F)F)cc1` (stereo not drawn) [Example 1, N-cyanomethyl-4-(4-chloropyrazole-1-yl)-1-(4-trifluoromethoxy-phenylamino)-3-(trifluoromethyl-phenyl)-carbonyl-1,4,5,6-tetrahydropyridazine], the “Death rate in % after 7d” value in data set [1] (setting [7]) stood at 100%; in data set [2] (setting [7]), 100%; in data set [3] (setting [7]) it was 100%; in data set [5] (setting [7]) it was 100%; in data set [6] (500 ppm active ingredient, after 7d, soybean sprouts), 100%. Also, the “efficacy (in words)” value in data set [1] (Phaedon larvae test), in data set [2] (Spodoptera frugiperda test), in data set [3] (Plutella test), in data set [5] (Spodotera exigua test) and in data set [6] (Heliothis armigera test) was “good efficacy” each time. The chromatographic logP in data set [4] (pH 2.3, read-out: logp (pH: 2.3)) amounted to 4.22.
In turn, `N#Cc1cccc(C(=O)C(Br)CCCl)c1` (stereo not drawn) [Example (X-1), 3′-cyano-2-bromo-4-chlorobutyrophenone] yielded a chromatographic logP in data set [4] (pH 2, pH2) of 3.09.

For the origin of these results see patent US20060128718A1, “Tetrahydropyridazine derivatives having a pesticidal effect” (priority 2002, published 2006).
